Assay results as given in patent publication US8183230B2, “Antimicrobial preservatives to achieve multi-dose formulation using beta-cyclodextrins for liquid dosage forms” (priority 2004, dated 2012).

Experiments:
[1] = Equilibrium dialysis method for determining binding constants
Excerpt: In the present invention, the method to determine binding constants utilizes equilibrium dialysis in the development of a multi-use parenteral formulation containing SBE-CD and a preservative. In particular, the method was applied in developing a parenteral formulation comprising the compound of Formula Ia, a cyclodextrin (SBE-CD) and a preservative (meta-cresol). This approach is applicable to compounds other than the compound of Formula Ia in developing parenteral formulations and is within the scope of this invention. […] The significance of this procedure is its ability to measure the binding constant of multiple compounds competing for binding with the cyclodextrin. The experimental dialysis data also provides an easily interpreted representation of binding in the formulation by visualizing the degree of interaction by the equilibrium established following dialysis.
Equilibrium dialysis permits calculation of binding constants by modeling the resultant diffusion rate across a semi-permeable membrane with an equilibrium end point. Equilibrium dialysis is performed by allowing the substrate in a solution containing bound substrate and ligand in a donor compartment of an equilibrium dialysis apparatus (cell) to equilibrate over time with an acceptor compartment. Ono, N., Hirayama, F., Arima, H., Uekama, K. “Determination of Stability Constant of β-Cyclodextrin Complexes Using the Membrane Permeation Technique and the Permeation Behavior of Drug Competing Agent-β-Cyclodextrin Ternary Systems” Eur. J. Pharm. Sci. 1999 9:133-139. The acceptor cell contains no ligand. The membrane is semi-permeable allowing the typically low molecular weight substrates to freely diffuse, while the cyclodextrin (MW=2163) remains in the donor compartment. Sampling from both compartments over time yields a time-concentration profile of substrate in both the donor and acceptor compartments of the dialysis cell.
A mathematical model describing the diffusion rate of drug across the membrane can be derived for systems containing two or more components in solution. The dialysis rate and binding constant for the substrates are obtained by resolving the equation using nonlinear curve fitting software. Depending on the interactions between the components it is possible to describe the competitive binding that occurs in the solution. The equilibrium binding constant is a measure of the relative concentration of meta-cresol bound to SBE-CD according to the chemical equilibrium equation below: S=meta-cresol, L=SBE-CD. S:L indicates the complex formed between meta-cresol and SBE-CD.
The initial experiments established the equilibrium dialysis flux rates for compound of Formula Ia and meta-cresol across the 500 MWCO dialysis membrane. Three different concentrations of compound of Formula Ia were initially loaded into the donor side of the dialysis well. Samples were withdrawn at various time intervals and concentration of free component was measured using HPLC. […] The smoothed line was a fit to the data using the model for a unitary system presented in the discussion. The equilibrium point for all these control experiments was reached after 50% of the total drug was distributed uniformly across the donor and acceptor sides of the well. This asymptotic approach to equilibrium was modeled and the dialysis rates were calculated, Table II.
The primary method of analyzing the data was to perform calculations from equilibrium dialysis data, as described below. In particular, the rate of diffusion across the membrane was calculated using the following equations:
The rate of diffusion from the donor phase is defined by the following relationship: [D]t−[D]eq=([D]0−[D]eq)e^(−2kt) (1)
Rate of diffusion into the Acceptor Phase: [D]eq−[D]t=[D]eqe^(−2kt) (2) wherein
The basis of calculation in the presence of SBE-CD is to assume that complexation occurs only in the donor phase according to the standard complexation reaction:
The value for CyDF may be substituted into equation 8. […]

[2] = Solubility analysis (solubility method) for binding constant with SBE-CD
Method: Traditional solubility methods were performed initially to determine the solubility and binding constants of compound of Formula Ia and preservative with SBE-CD.
Binding was calculated for meta-cresol using solubility analysis. The experiment was performed at different concentrations of compound of Formula Ia to determine if there was any effect from the presence of drug in solution on the meta-cresol binding constant. Meta-cresol solubility was measured in excess (saturated) meta-cresol and the equilibrium binding constant was calculated using the following equation:
[formula] Where St is the total solubility of meta-cresol, s0 is the inherent solubility of meta-cresol, Lt is the total concentration of SBE-CD (ligand) and K11 is the equilibrium binding constant of meta-cresol assuming a 1 to 1 binding stoichiometry.

[3] = Stability measurements (accelerated stability); settings: 3 mg/mL meta-cresol, 100 mg/mL SBE-CD, 10 mgA/mL compound of Formula Ia
Method: Stability Measurements. Potential lead formulations were evaluated under various accelerated stability conditions in order to assess potency and purity of compound of Formula Ia, preservative content and SBE-CD content. For example, in one accelerated stability study, potential lead formulations were placed in stability ovens to measure short-term thermal stability. […] Purity and potency assays to measure compound of Formula Ia, as well as antimicrobial preservatives and SBE-CD content, were performed using validated HPLC methodology. SBE-CD was assayed using GTP 5984.

[4] = Calculated non-sequestered concentrations in formulations; settings: preferred formulation: 10 mgA/mL compound, 63 mg/mL SBE-CD, 3.3 mg/mL meta-cresol, pH 4.4
Excerpt: These constants were used to calculate the concentration of non-sequestered meta-cresol in the formulations tested for anti-microbial efficacy.
The appearance of a plateau at the higher concentrations is only due to the limitation in the bactericidal efficacy measurement method. As the method consists in evaluating the population not killed by the preservative, when the whole population is dead (i.e. none is detectable any more ˜100%) the figure quoted is of the form: a log reduction greater than a value usually between 3 and 5.
The formulations were analyzed for preservative effectiveness.

[5] = binary, approximate ratio 1:1, Compound of Formula Ia 1.0, SBE-CD 1.0 mM
[6] = binary, approximate ratio 1:2, Compound of Formula Ia 0.5, SBE-CD 1.0 mM
[7] = binary, approximate ratio 1:4, Compound of Formula Ia 0.25, SBE-CD 1.0 mM
[8] = ternary, approximate ratio 1:1, Compound of Formula Ia 1.0, Meta-cresol 1.0 mM, SBE-CD 1.0 mM
[9] = ternary, approximate ratio 1:2, Compound of Formula Ia 0.5, Meta-cresol 0.5 mM, SBE-CD 1.0 mM
[10] = ternary, approximate ratio 1:4, Compound of Formula Ia 0.25, Meta-cresol 0.25 mM, SBE-CD 1.0 mM

drug binding constant greater than preservative ([1]; binary systems with SBE-CD): 13 fold
Keq [1, 5]: 740 M⁻¹
k [1, 5]: 0.015 h⁻¹
Keq [1, 6]: 1092 M⁻¹
k [1, 6]: 0.013 h⁻¹
Keq [1, 7]: 1444 M⁻¹
k [1, 7]: 0.012 h⁻¹
binding constant with SBE-CD ([1]; equilibrium dialysis method, binary systems, drug ±352 M−1, n=3, preservative ±7 M−1): 1092 M⁻¹
Keq [1, 8]: 690 M⁻¹
k [1, 8]: 0.018 h⁻¹
Keq [1, 9]: 720 M⁻¹
k [1, 9]: 0.013 h⁻¹
Keq [1, 10]: 520 M⁻¹
k [1, 10]: 0.011 h⁻¹
binding constant with SBE-CD [2]: 1040 M⁻¹
binding constant ([2]; pH 4.4): 1040 M⁻¹
CONTENT (% INTENT) ([3]; 5° C., 1 week, Amber-Treated): 97 % INTENT
CONTENT (% INTENT) ([3]; 5° C., 1 week, Amber-Untreated): 96 % INTENT
CONTENT (% INTENT) ([3]; 5° C., 3 weeks, Amber-Treated): 96 % INTENT
CONTENT (% INTENT) ([3]; 5° C., 3 weeks, Amber-Untreated): 95 % INTENT
CONTENT (% INTENT) ([3]; 5° C., 6 weeks, Amber-Treated): 95 % INTENT
CONTENT (% INTENT) ([3]; 5° C., 6 weeks, Amber-Untreated): 94 % INTENT
CONTENT (% INTENT) ([3]; 5° C., 12 weeks, Amber-Treated): 94 % INTENT
CONTENT (% INTENT) ([3]; 5° C., 12 weeks, Amber-Untreated): 94 % INTENT
CONTENT (% INTENT) ([3]; 50° C., 1 week, Amber-Treated): 95 % INTENT
CONTENT (% INTENT) ([3]; 50° C., 1 week, Amber-Untreated): 96 % INTENT
CONTENT (% INTENT) ([3]; 50° C., 3 weeks, Amber-Treated): 95 % INTENT
CONTENT (% INTENT) ([3]; 50° C., 3 weeks, Amber-Untreated): 93 % INTENT
CONTENT (% INTENT) ([3]; 50° C., 6 weeks, Amber-Treated): 96 % INTENT
CONTENT (% INTENT) ([3]; 50° C., 6 weeks, Amber-Untreated): 94 % INTENT
CONTENT (% INTENT) ([3]; 50° C., 12 weeks, Amber-Treated): 95 % INTENT
CONTENT (% INTENT) ([3]; 70° C., 1 week, Amber-Treated): 94 % INTENT
CONTENT (% INTENT) ([3]; 70° C., 1 week, Amber-Untreated): 94 % INTENT
CONTENT (% INTENT) ([3]; 70° C., 2 weeks, Amber-Treated): 94 % INTENT
CONTENT (% INTENT) ([3]; 70° C., 2 weeks, Amber-Untreated): 94 % INTENT
CONTENT (% INTENT) ([3]; 70° C., 3 weeks, Amber-Treated): 92 % INTENT
CONTENT (% INTENT) ([3]; 70° C., 3 weeks, Amber-Untreated): 94 % INTENT
CONTENT (% INTENT) ([3]; 70° C., 6 weeks, Amber-Treated): 92 % INTENT
CONTENT (% INTENT) ([3]; 70° C., 6 weeks, Amber-Untreated): 93 % INTENT
CONTENT (% INTENT) ([3]; 70° C., 12 weeks, Amber-Treated): 93 % INTENT
CONTENT (% INTENT) ([3]; 70° C., 12 weeks, Amber-Untreated): 93 % INTENT
CONTENT (% INTENT) ([3]; ICH Photostability, 1X ICH UV/FI, Amber-Treated): 92 % INTENT
CONTENT (% INTENT) ([3]; ICH Photostability, 1X ICH UV/FI, Amber-Untreated): 93 % INTENT
loss / potency decrease ([3]; after 12 weeks at 70° C., relative to 1 week at 5° C.): 3%
calculated non-sequestered concentration [4]: 1.4 mg/mL
Structure (SMILES): COc1ccc(C(C)(C)C)cc1CN[C@H]1C2CCN(CC2)[C@H]1C(c1ccccc1)c1ccccc1 [compound of Formula Ia]
